Experimental data published in ChEMBL document CHEMBL3351613, “Indolylarylsulfones carrying a heterocyclic tail as very potent and broad spectrum HIV-1 non-nucleoside reverse transcriptase inhibitors” (J Med Chem, 2014).
The source made the active and inactive calls. No cut-off for these calls is given here.

Assays:
[1] = tested on: Human immunodeficiency virus 1; format: functional, organism-based; settings: Human immunodeficiency virus 1, NL4-3, MT4
[2] = tested on: Human immunodeficiency virus 1; experiment: Antiviral activity against HIV1 Clade A/E (ID12) infected in human PBMC assessed as reduction in p24 antigen production; format: functional, organism-based; settings: Human immunodeficiency virus 1, Clade A/E (ID12)
[3] = tested on: Human immunodeficiency virus 1; experiment: Antiviral activity against HIV1 Clade F (BZ162) infected in human PBMC assessed as reduction in p24 antigen production; format: functional, organism-based; settings: Human immunodeficiency virus 1, Clade F (BZ162)
[4] = tested on: Human immunodeficiency virus 1; experiment: Antiviral activity against HIV1 Clade B (BaL) infected in human PBMC assessed as reduction in p24 antigen production; format: functional, organism-based; settings: Human immunodeficiency virus 1, Clade B (BaL)
[5] = biological target: T1, Human immunodeficiency virus type 1 reverse transcriptase (Human immunodeficiency virus 1, UniProt Q72547)
[6] = biological target: Human immunodeficiency virus type 1 reverse transcriptase (Human immunodeficiency virus 1, UniProt Q72547, V106A); experiment: Inhibition of […] HIV1 reverse transcriptase V106A mutant assessed as reduction in enzyme activity
[7] = Permeability by PAMPA method; format: ADME
[8] = tested on: Human immunodeficiency virus 1; format: functional, organism-based; settings: Human immunodeficiency virus 1, NL4-3, MT4; remark: listed apart in the source
[9] = tested on: Human immunodeficiency virus 2; experiment: Antiviral activity against HIV2 ROD infected in human PBMC cells assessed as reduction in p24 antigen production; format: functional, organism-based; settings: ISOLATE ROD
[10] = Stability in human plasma assessed as remaining unmodified parent compound level after 24 hrs; format: ADME, cell-free; settings: read-out: Stability
[11] = tested on: Human immunodeficiency virus 1; experiment: Antiviral activity against HIV1 Clade D (UG270) infected in human PBMC assessed as reduction in p24 antigen production; format: functional, organism-based; settings: Human immunodeficiency virus 1, Clade D (UG270)
[12] = tested on: Human immunodeficiency virus 1; experiment: Antiviral activity against HIV1 Clade C (DJ259) infected in human PBMC assessed as reduction in p24 antigen production; format: functional, organism-based; settings: Human immunodeficiency virus 1, Clade C (DJ259)
[13] = tested on: Human immunodeficiency virus 1; format: functional, organism-based; settings: Human immunodeficiency virus 1, NL4-3, MT4; remark: listed apart in the source
[14] = tested on: Human immunodeficiency virus 1; experiment: Antiviral activity against HIV1 Clade G (HH8793) infected in human PBMC assessed as reduction in p24 antigen production; format: functional, organism-based; settings: Human immunodeficiency virus 1, Clade G (HH8793)
[15] = biological target: Human immunodeficiency virus type 1 reverse transcriptase (Human immunodeficiency virus 1, UniProt Q72547, K103N)
Description: Inhibition of wild type HIV1 reverse transcriptase K103N mutant assessed as reduction in enzyme activity

Plasma = experiment: Stability in human plasma assessed as compound hydrolysis after 24 hrs; format: ADME, cell-free
[16] = tested on: Human immunodeficiency virus 1; experiment: Antiviral activity against HIV1 NL4-3 infected in human MT4 cells assessed as reduction in virus-induced cell death by MTT assay; format: functional, organism-based; settings: Human immunodeficiency virus 1, NL4-3, MT4
[17] = tested on: Human immunodeficiency virus 1; experiment: Antiviral activity against HIV1 Clade A (UG273) infected in human PBMC assessed as reduction in p24 antigen production; format: functional, organism-based; settings: Human immunodeficiency virus 1, Clade A (UG273)
[18] = biological target: Human immunodeficiency virus type 1 reverse transcriptase (Human immunodeficiency virus 1, UniProt Q72547, L100I)
Description: Inhibition of wild type HIV1 reverse transcriptase L100I mutant assessed as reduction in enzyme activity

[19] = biological target: T1, Human immunodeficiency virus type 1 reverse transcriptase; remark: listed apart in the source
Description: Inhibition of wild type HIV1 reverse transcriptase assessed as reduction in enzyme activity

[20] = Drug retention assessed as membrane retention by PAMPA method; format: physicochemical

SMILES: Cc1cc(C)cc(S(=O)(=O)c2c(C(=O)N[C@H](C)c3ccncc3)[nH]c3ccc(Cl)cc23)c1
- EC50 [1]: 150 nM
- EC50 [2]: 1.2 nM
- EC50 [3]: 1.6 nM
- EC50 [4]: 2.1 nM
- IC50 [5]: 2230 nM
- IC50 [6]: 26 nM
- Papp [7]: 12.4 ×10⁻⁶ cm/s
- EC50 [8]: 2.1 nM
- Activity [9]: inactive
- remaining at 24 h [10]: 99%
- EC50 [11]: 1.8 nM
- EC50 [12]: 0.7 nM
- EC50 [13]: 933 nM
- EC50 [14]: 1.7 nM
- IC50 [15]: 50 nM
- Stability (Plasma): Stable
- EC50 [16]: 0.2 nM
- EC50 [17]: 3.4 nM
- IC50 [18]: 3 nM
- IC50 [19]: 18 nM
- Drug uptake [20]: 0%
